{
  "source": "patent US11858900B2",
  "about": "“Fluorinated 2-amino-4-(substituted amino)phenyl carbamate derivatives” (OcuTerra Therapeutics, Inc., priority 2016, dated 2024)",
  "key": {"human Kv7.2/7.3 channels": {"target": "T1, human Kv7.2/7.3 channels (Homo sapiens, UniProt O43525+O43526)", "T1 construct": "expressed in transfected cells", "T1 sequence (O43525 whole entry)": "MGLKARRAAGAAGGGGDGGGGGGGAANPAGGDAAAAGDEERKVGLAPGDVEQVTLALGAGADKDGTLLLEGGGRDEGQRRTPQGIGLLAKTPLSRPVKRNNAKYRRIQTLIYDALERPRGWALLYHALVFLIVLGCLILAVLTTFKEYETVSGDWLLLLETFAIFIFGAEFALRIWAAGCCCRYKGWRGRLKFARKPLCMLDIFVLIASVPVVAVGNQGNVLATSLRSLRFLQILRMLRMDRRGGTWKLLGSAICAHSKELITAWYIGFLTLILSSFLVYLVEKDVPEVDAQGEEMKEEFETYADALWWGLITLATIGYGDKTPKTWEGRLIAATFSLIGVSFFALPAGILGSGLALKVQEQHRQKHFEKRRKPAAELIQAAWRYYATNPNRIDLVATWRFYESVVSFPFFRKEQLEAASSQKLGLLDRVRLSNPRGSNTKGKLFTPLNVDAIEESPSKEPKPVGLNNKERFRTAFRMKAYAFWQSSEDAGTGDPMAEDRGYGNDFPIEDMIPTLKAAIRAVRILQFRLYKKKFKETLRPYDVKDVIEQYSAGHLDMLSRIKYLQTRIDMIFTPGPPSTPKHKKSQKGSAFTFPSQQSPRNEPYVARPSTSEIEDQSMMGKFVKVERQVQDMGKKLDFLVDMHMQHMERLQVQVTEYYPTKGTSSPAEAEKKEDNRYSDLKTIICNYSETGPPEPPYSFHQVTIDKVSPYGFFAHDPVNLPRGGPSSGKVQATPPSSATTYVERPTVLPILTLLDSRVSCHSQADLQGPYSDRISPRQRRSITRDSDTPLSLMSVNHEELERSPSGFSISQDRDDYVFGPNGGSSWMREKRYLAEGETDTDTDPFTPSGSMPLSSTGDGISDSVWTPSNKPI", "T1 sequence (O43526 whole entry)": "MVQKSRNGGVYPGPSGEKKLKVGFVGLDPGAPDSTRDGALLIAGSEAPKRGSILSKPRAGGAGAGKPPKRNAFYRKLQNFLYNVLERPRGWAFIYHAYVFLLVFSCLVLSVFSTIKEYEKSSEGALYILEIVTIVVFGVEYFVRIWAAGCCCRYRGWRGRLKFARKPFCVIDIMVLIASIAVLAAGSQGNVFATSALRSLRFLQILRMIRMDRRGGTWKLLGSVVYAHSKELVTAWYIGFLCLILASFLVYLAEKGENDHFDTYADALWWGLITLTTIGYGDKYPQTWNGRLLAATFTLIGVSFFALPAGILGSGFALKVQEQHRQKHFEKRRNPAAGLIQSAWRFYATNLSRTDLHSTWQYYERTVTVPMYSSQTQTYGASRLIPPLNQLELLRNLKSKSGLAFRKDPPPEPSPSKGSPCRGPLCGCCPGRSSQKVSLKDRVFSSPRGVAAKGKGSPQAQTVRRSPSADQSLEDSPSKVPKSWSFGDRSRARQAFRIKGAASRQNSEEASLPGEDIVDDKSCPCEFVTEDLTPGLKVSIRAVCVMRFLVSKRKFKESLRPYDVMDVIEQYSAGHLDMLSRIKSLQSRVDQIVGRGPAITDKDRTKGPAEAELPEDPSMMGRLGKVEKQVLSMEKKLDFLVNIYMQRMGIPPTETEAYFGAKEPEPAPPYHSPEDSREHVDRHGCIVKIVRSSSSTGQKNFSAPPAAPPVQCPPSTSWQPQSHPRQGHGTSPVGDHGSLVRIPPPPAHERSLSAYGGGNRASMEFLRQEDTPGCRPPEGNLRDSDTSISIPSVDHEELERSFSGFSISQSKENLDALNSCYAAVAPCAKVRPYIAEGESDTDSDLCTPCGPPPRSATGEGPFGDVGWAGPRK", "assay": "Assessment of recombinantly expressed human Kv7.2/7.3 channel activation on SyncroPatch automated patch clamp platform", "assay_type": "cell-based", "settings": "for activation of Kv7.2/7.3 channels as measured by the SyncroPatch platform: FIGS. 2A-2G plots", "description": "The in vitro effects of a compound of the present application recombinantly expressed human Kv7.2/7.3 channels are assessed on Syncropatch high throughput electrophysiology platform.\nCell Preparations: CHO cells stably expressing human Kv7.2/7.3 channels were cultured in Ham's F-12 media (Hyclone, Cat #SH30022.02) supplemented with 10% Fetal Bovine Serum, 1×MEM non-essential amino acids, and 400m/ml G418 at 37° C. in 5% CO2. On the day of Syncropatch, the cells were washed once in DPBS (Hyclone, Cat #SH30028.03) for approximately 30 seconds. […] 10 ml of cold media (Ham's F-12 media (Hyclone, Cat #SH30022.02) supplemented with 10% Fetal Bovine Serum, 1×MEM non-essential amino acids, and 400m/ml G418) was added to inactivate Trypsin. The cells were then triturated until a single cell suspension was achieved, and the cell count was performed. The cells were then diluted to a concentration of 5×10^5/ml and placed into the “cell hotel” on the deck of the Syncropatch at 10° C. for about 1 hour to recover. 40 μL of the cell suspension was dispensed into each well of a 384-well Syncropatch chip by the onboard pipettor at the beginning of each Syncropatch assay.\nEight-point dose response curves were created by performing semi-log serial dilutions from 10 mM compound stock solutions in 100% DMSO. […] Final DMSO concentration in the assay was 0.3%. Final assay test concentrations were 30 μM to 0.01 μM or 1 μM to 0.0003 μM. Negative (0.3% DMSO) and positive (30 μM ML213) controls were included in each test run to assess pharmacological responsiveness.\nAssessment Protocol: Electrophysiological studies of the compounds were performed using the Nanion SyncroPatch automated patch clamp platform.\nKv7 channels were evaluated using a voltage protocol in which cells were voltage-clamped at a holding potential of −110 mV. Potassium currents were activated with a series of voltage steps from −110 mV to +50 mV in 10 mV intervals with 5.5 seconds between successive voltage steps. Each voltage step was 3 seconds in duration and immediately followed by a 1 second voltage step to −120 mV to generate an inward “tail” current to allow construction of activation (G-V) curves by plotting normalized peak tail current versus the potential of the activating voltage step.\nData Analysis: Data was collected on the Syncropatch platform using PatchControl software (Nanion) and processed and analyzed using DataControl Software (Nanion). Normalized percent activation was calculated and activation curves were fit with a Boltzmann function to determine the midpoint voltage of activation (G-V midpoint) for both pre-compound and post-compound conditions for each of the 384-wells of a sealchip with Pipeline Pilot (Accelrys). The difference in G-V midpoint between pre-compound and post-compound conditions (A V0.5) was plotted as a function of concentration and concentration-response curves were fit with a three-parameter logistic equation {Y=Bottom+(Top−Bottom)/(1+10^(Log EC50−X))} for determination of the EC50 (Graphpad Prism)."}, "[1]": {"settings": "in vivo; cited from earlier work"}, "[2]": {"settings": "concentration-dependent shift in G-V midpoint of activation, CHO cells stably expressing human Kv7.2/7.3, SyncroPatch, read-out: EC50 (95% CI)"}},
  "note": "Like-named read-outs stand apart in the source and are kept apart here.",
  "data": [
    {"smiles": "CCOC(=O)Nc1ccc(N2CCc3ccc(C(F)(F)F)cc3C2)cc1N", "note": "[Compound 22, ethyl (2-amino-4-(7-(trifluoromethyl)-3,4-dihydroisoquinolin-2(1H)-yl)phenyl)carbamate]", "values": [
      {"measurement": "EC50", "setting": "human Kv7.2/7.3 channels; [2]", "result": "100 to 1000", "unit": "nM"}
    ]},
    {"smiles": "C=CCN(Cc1cccc(C(F)(F)F)c1)c1ccc(NC(=O)OCC)c(N)c1", "note": "[Compound 6, ethyl (4-(allyl(3-(trifluoromethyl)benzyl)amino)-2-aminophenyl)carbamate]", "values": [
      {"measurement": "activation of Kv7.2/7.3 channels as measured by the SyncroPatch platform", "setting": "human Kv7.2/7.3 channels", "result": "dose-dependent activation"},
      {"measurement": "EC50", "setting": "human Kv7.2/7.3 channels; [2]", "result": "100 to 1000", "unit": "nM"}
    ]},
    {"smiles": "CCOC(=O)Nc1c(N)cc(NCc2ccc(F)cc2)cc1F", "note": "[Compound X, reference compound]", "values": [
      {"measurement": "EC50", "setting": "human Kv7.2/7.3 channels", "result": "100 to 1000", "unit": "nM"},
      {"measurement": "activation of Kv7.2/7.3 channels as measured by the SyncroPatch platform", "setting": "human Kv7.2/7.3 channels", "result": "dose-dependent activation"}
    ]},
    {"smiles": "C#CCN(Cc1cccc(C(F)(F)F)c1)c1ccc(NC(=O)OCC)c(N)c1", "note": "[Compound 12, ethyl (2-amino-4-(prop-2-yn-1-yl(3-(trifluoromethyl)benzyl)amino)phenyl)carbamate]", "values": [
      {"measurement": "activation of Kv7.2/7.3 channels as measured by the SyncroPatch platform", "setting": "human Kv7.2/7.3 channels", "result": "dose-dependent activation"},
      {"measurement": "EC50", "setting": "human Kv7.2/7.3 channels; [2]", "result": "100 to 1000", "unit": "nM"}
    ]},
    {"smiles": "CCOC(=O)Nc1ccc(N2CCc3cc(C(F)(F)F)ccc3C2)cc1N", "note": "[Compound 23, ethyl (2-amino-4-(6-(trifluoromethyl)-3,4-dihydroisoquinolin-2(1H)-yl)phenyl)carbamate]", "values": [
      {"measurement": "EC50", "setting": "human Kv7.2/7.3 channels; [2]", "result": "1000 to 5000", "unit": "nM"}
    ]},
    {"smiles": "C#CCN(Cc1cccc(C(F)(F)F)c1)c1ccc(NC(=O)OCC)c(N)c1F", "note": "[Compound 9, ethyl (2-amino-3-fluoro-4-(prop-2-yn-1-yl(3-(trifluoromethyl)benzyl)amino)phenyl)carbamate]", "values": [
      {"measurement": "EC50", "setting": "human Kv7.2/7.3 channels; [2]", "result": "100 to 1000", "unit": "nM"}
    ]},
    {"smiles": "C=CCN(Cc1ccc(C(F)(F)F)cc1)c1ccc(NC(=O)OCC)c(N)c1F", "note": "[Compound 2, ethyl (4-(allyl(4-(trifluoromethyl)benzyl)amino)-2-amino-3-fluorophenyl)carbamate]", "values": [
      {"measurement": "EC50", "setting": "human Kv7.2/7.3 channels; [2]", "result": "100 to 1000", "unit": "nM"}
    ]},
    {"smiles": "CCOC(=O)Nc1ccc(N2CCc3cc(F)ccc3C2)c(F)c1N", "note": "[Compound 17, ethyl (2-amino-3-fluoro-4-(6-fluoro-3,4-dihydroisoquinolin-2(1H)-yl)phenyl)carbamate]", "values": [
      {"measurement": "EC50", "setting": "human Kv7.2/7.3 channels; [2]", "result": "100 to 1000", "unit": "nM"}
    ]},
    {"smiles": "C=CCN(Cc1ccc(F)cc1)c1ccc(NC(=O)OCC)c(N)c1", "note": "[Compound 4, ethyl (4-(allyl(4-fluorobenzyl)amino)-2-aminophenyl)carbamate]", "values": [
      {"measurement": "activation of Kv7.2/7.3 channels as measured by the SyncroPatch platform", "setting": "human Kv7.2/7.3 channels", "result": "dose-dependent activation"},
      {"measurement": "EC50", "setting": "human Kv7.2/7.3 channels; [2]", "result": "100 to 1000", "unit": "nM"}
    ]},
    {"smiles": "C#CCN(Cc1ccc(F)cc1)c1ccc(NC(=O)OCC)c(N)c1", "note": "[Compound 10, reference compound]", "values": [
      {"measurement": "activation of Kv7.2/7.3 channels as measured by the SyncroPatch platform", "setting": "human Kv7.2/7.3 channels", "result": "dose-dependent activation"},
      {"measurement": "EC50", "setting": "human Kv7.2/7.3 channels; [2]", "result": "1000 to 5000", "unit": "nM"}
    ]},
    {"smiles": "CCOC(=O)Nc1ccc(N2CCc3cc(F)ccc3C2)cc1N", "note": "[Compound 21, ethyl (2-amino-4-(6-fluoro-3,4-dihydroisoquinolin-2(1H)-yl)phenyl)carbamate]", "values": [
      {"measurement": "EC50", "setting": "human Kv7.2/7.3 channels; [2]", "result": "1000 to 5000", "unit": "nM"}
    ]},
    {"smiles": "C=CCN(Cc1ccc(F)cc1)c1ccc(NC(=O)OCC)c(N)c1F", "note": "[Compound 1, ethyl (4-(allyl(4-fluorobenzyl)amino)-2-amino-3-fluorophenyl)carbamate]", "values": [
      {"measurement": "EC50", "setting": "human Kv7.2/7.3 channels; [2]", "result": "1000 to 5000", "unit": "nM"}
    ]},
    {"smiles": "CCOC(=O)Nc1ccc(NCc2ccc(F)cc2)cc1N", "note": "[Ezogabine, ethyl N-[2-amino-4-[(4-fluorophenyl)methylamino]phenyl]carbamate]", "values": [
      {"measurement": "half-life", "setting": "[1]", "result": 8, "unit": "h"}
    ]},
    {"smiles": "CCOC(=O)Nc1ccc(N2CCc3ccc(F)cc3C2)c(F)c1N", "note": "[Compound 20, ethyl (2-amino-3-fluoro-4-(7-fluoro-3,4-dihydroisoquinolin-2(1H)-yl)phenyl)carbamate]", "values": [
      {"measurement": "EC50", "setting": "human Kv7.2/7.3 channels; [2]", "result": "100 to 1000", "unit": "nM"}
    ]},
    {"smiles": "CCOC(=O)Nc1ccc(N2CCc3ccc(C(F)(F)F)cc3C2)c(F)c1N", "note": "[Compound 18, Ethyl (2-amino-3-fluoro-4-(7-(trifluoromethyl)-3,4-dihydroisoquinolin-2(1H)-yl)phenyl)carbamate]", "values": [
      {"measurement": "EC50", "setting": "human Kv7.2/7.3 channels; [2]", "result": "100 to 1000", "unit": "nM"}
    ]},
    {"smiles": "C#CCN(Cc1ccc(F)cc1)c1ccc(NC(=O)OCC)c(N)c1F", "note": "[Compound 7, ethyl (2-amino-3-fluoro-4-((4-fluorobenzyl)(prop-2-yn-1-yl)amino)phenyl)carbamate]", "values": [
      {"measurement": "activation of Kv7.2/7.3 channels as measured by the SyncroPatch platform", "setting": "human Kv7.2/7.3 channels", "result": "dose-dependent activation"},
      {"measurement": "EC50", "setting": "human Kv7.2/7.3 channels; [2]", "result": "100 to 1000", "unit": "nM"}
    ]},
    {"smiles": "C=CCN(Cc1cccc(C(F)(F)F)c1)c1ccc(NC(=O)OCC)c(N)c1F", "note": "[Compound 3, ethyl (4-(allyl(3-(trifluoromethyl)benzyl)amino)-2-amino-3-fluorophenyl)carbamate]", "values": [
      {"measurement": "EC50", "setting": "human Kv7.2/7.3 channels; [2]", "result": "5000 to 25000", "unit": "nM"}
    ]},
    {"smiles": "CCOC(=O)Nc1ccc(N2CCc3ccc(F)cc3C2)cc1N", "note": "[Compound 24, ethyl (2-amino-4-(7-fluoro-3,4-dihydroisoquinolin-2(1H)-yl)phenyl)carbamate]", "values": [
      {"measurement": "EC50", "setting": "human Kv7.2/7.3 channels; [2]", "result": "1000 to 5000", "unit": "nM"}
    ]},
    {"smiles": "C#CCN(Cc1ccc(C(F)(F)F)cc1)c1ccc(NC(=O)OCC)c(N)c1", "note": "[Compound 11, ethyl (2-amino-4-(prop-2-yn-1-yl(4-(trifluoromethyl)benzyl)amino)phenyl)carbamate]", "values": [
      {"measurement": "EC50", "setting": "human Kv7.2/7.3 channels; [2]", "result": "100 to 1000", "unit": "nM"}
    ]},
    {"smiles": "C#CCN(Cc1ccc(C(F)(F)F)cc1)c1ccc(NC(=O)OCC)c(N)c1F", "note": "[Compound 8, ethyl (2-amino-3-fluoro-4-(prop-2-yn-1-yl(4-(trifluoromethyl)benzyl)amino)phenyl)carbamate]", "values": [
      {"measurement": "activation of Kv7.2/7.3 channels as measured by the SyncroPatch platform", "setting": "human Kv7.2/7.3 channels", "result": "dose-dependent activation"},
      {"measurement": "EC50", "setting": "human Kv7.2/7.3 channels; [2]", "result": "100 to 1000", "unit": "nM"}
    ]},
    {"smiles": "CCOC(=O)Nc1ccc(N2CCc3cc(C(F)(F)F)ccc3C2)c(F)c1N", "note": "[Compound 19, ethyl (2-amino-3-fluoro-4-(6-(trifluoromethyl)-3,4-dihydroisoquinolin-2(1H)-yl)phenyl)carbamate]", "values": [
      {"measurement": "EC50", "setting": "human Kv7.2/7.3 channels; [2]", "result": "1000 to 5000", "unit": "nM"}
    ]}
  ]
}
